Experimental data from the NIST ThermoML archive (doi:10.1021/je700521t).
± gives the expanded uncertainty stated by the source.

Experiment: xn = mol fraction of the nth substance listed
Settings: 101 kPa, Liquid; for mass density: Vibrating tube method

Compound: CCCCn1cc[n+](C)c1.[O-][Cl+3]([O-])([O-])[O-] [1-butyl-3-methylimidazolium perchlorate] + CCO
- mass density (283.15 K, x2 = 0.1): 1249.3 ± 7.2 kg/m3
- mass density (283.15 K, x2 = 0.165): 1239.4 ± 6.2 kg/m3
- mass density (283.15 K, x2 = 0.291): 1216.6 ± 4.7 kg/m3
- mass density (283.15 K, x2 = 0.401): 1192 ± 3.5 kg/m3
- mass density (283.15 K, x2 = 0.479): 1173.6 ± 2.8 kg/m3
- viscosity (283.15 K, x2 = 0.1): 255.52 ± 29 mPa·s
- viscosity (283.15 K, x2 = 0.165): 181.83 ± 16 mPa·s
- viscosity (283.15 K, x2 = 0.291): 87.42 ± 5.5 mPa·s
- viscosity (283.15 K, x2 = 0.401): 50.26 ± 4.1 mPa·s
- viscosity (283.15 K, x2 = 0.479): 35.48 ± 4.1 mPa·s
- mass density (288.15 K, x2 = 0.1): 1245.7 ± 7.1 kg/m3
- mass density (288.15 K, x2 = 0.165): 1235.7 ± 6.2 kg/m3
- mass density (288.15 K, x2 = 0.291): 1212.8 ± 4.6 kg/m3
- mass density (288.15 K, x2 = 0.401): 1188.3 ± 3.5 kg/m3
- mass density (288.15 K, x2 = 0.479): 1169.8 ± 2.8 kg/m3
- viscosity (288.15 K, x2 = 0.1): 188.52 ± 18 mPa·s
- viscosity (288.15 K, x2 = 0.165): 136.86 ± 9.9 mPa·s
- viscosity (288.15 K, x2 = 0.291): 68.04 ± 4.5 mPa·s
- viscosity (288.15 K, x2 = 0.401): 40.89 ± 4.1 mPa·s
- viscosity (288.15 K, x2 = 0.479): 29.17 ± 4 mPa·s
- mass density (293.15 K, x2 = 0.1): 1242.1 ± 7.1 kg/m3
- mass density (293.15 K, x2 = 0.165): 1231.9 ± 6.2 kg/m3
- mass density (293.15 K, x2 = 0.291): 1208.9 ± 4.6 kg/m3
- mass density (293.15 K, x2 = 0.401): 1184.6 ± 3.5 kg/m3
- mass density (293.15 K, x2 = 0.479): 1166.1 ± 2.8 kg/m3
- mass density (293.15 K, x2 = 0.592): 1129.6 ± 1.9 kg/m3
- mass density (293.15 K, x2 = 0.637): 1110.4 ± 1.6 kg/m3
- mass density (293.15 K, x2 = 0.79): 1022.6 ± 0.8 kg/m3
- mass density (293.15 K, x2 = 0.86): 960.5 ± 0.5 kg/m3
- viscosity (293.15 K, x2 = 0.1): 142.2 ± 11 mPa·s
- viscosity (293.15 K, x2 = 0.165): 105.92 ± 6.8 mPa·s
- viscosity (293.15 K, x2 = 0.291): 54.9 ± 4.2 mPa·s
- viscosity (293.15 K, x2 = 0.401): 33.49 ± 4.1 mPa·s
- viscosity (293.15 K, x2 = 0.479): 24.41 ± 4 mPa·s
- viscosity (293.15 K, x2 = 0.592): 12.98 ± 4 mPa·s
- viscosity (293.15 K, x2 = 0.637): 11.66 ± 4 mPa·s
- viscosity (293.15 K, x2 = 0.79): 5.38 mPa·s
- viscosity (293.15 K, x2 = 0.86): 4.96 mPa·s
- mass density (298.15 K, x2 = 0.1): 1238.6 ± 7 kg/m3
- mass density (298.15 K, x2 = 0.165): 1228 ± 6.1 kg/m3
- mass density (298.15 K, x2 = 0.291): 1205 ± 4.6 kg/m3
- mass density (298.15 K, x2 = 0.401): 1180.9 ± 3.4 kg/m3
- mass density (298.15 K, x2 = 0.479): 1162.2 ± 2.7 kg/m3
- mass density (298.15 K, x2 = 0.592): 1125.8 ± 1.9 kg/m3
- mass density (298.15 K, x2 = 0.637): 1104.6 ± 1.6 kg/m3
- mass density (298.15 K, x2 = 0.79): 1018.7 ± 0.8 kg/m3
- mass density (298.15 K, x2 = 0.86): 956.7 ± 0.5 kg/m3
- viscosity (298.15 K, x2 = 0.1): 109.99 ± 7.2 mPa·s
- viscosity (298.15 K, x2 = 0.165): 83.35 ± 5.2 mPa·s
- viscosity (298.15 K, x2 = 0.291): 44.84 ± 4.2 mPa·s
- viscosity (298.15 K, x2 = 0.401): 27.92 ± 4 mPa·s
- viscosity (298.15 K, x2 = 0.479): 20.67 ± 4 mPa·s
- viscosity (298.15 K, x2 = 0.592): 11.13 ± 4 mPa·s
- viscosity (298.15 K, x2 = 0.637): 10.06 ± 4 mPa·s
- viscosity (298.15 K, x2 = 0.79): 4.62 mPa·s
- viscosity (298.15 K, x2 = 0.86): 4.22 mPa·s
- mass density (303.15 K, x2 = 0.1): 1235.1 ± 7 kg/m3
- mass density (303.15 K, x2 = 0.165): 1224.1 ± 6.1 kg/m3
- mass density (303.15 K, x2 = 0.291): 1199.8 ± 4.5 kg/m3
- mass density (303.15 K, x2 = 0.401): 1177.2 ± 3.4 kg/m3
- mass density (303.15 K, x2 = 0.479): 1158.3 ± 2.7 kg/m3
- mass density (303.15 K, x2 = 0.592): 1122 ± 1.9 kg/m3
- mass density (303.15 K, x2 = 0.637): 1102.7 ± 1.6 kg/m3
- mass density (303.15 K, x2 = 0.79): 1014.8 ± 0.8 kg/m3
- mass density (303.15 K, x2 = 0.86): 952.7 ± 0.5 kg/m3
- viscosity (303.15 K, x2 = 0.1): 86.43 ± 5.4 mPa·s
- viscosity (303.15 K, x2 = 0.165): 66.48 ± 4.5 mPa·s
- viscosity (303.15 K, x2 = 0.291): 36.75 ± 4.1 mPa·s
- viscosity (303.15 K, x2 = 0.401): 23.38 ± 4 mPa·s
- viscosity (303.15 K, x2 = 0.479): 17.56 ± 4 mPa·s
- viscosity (303.15 K, x2 = 0.592): 9.6 ± 4 mPa·s
- viscosity (303.15 K, x2 = 0.637): 8.71 ± 4 mPa·s
- viscosity (303.15 K, x2 = 0.79): 4.03 mPa·s
- viscosity (303.15 K, x2 = 0.86): 3.59 mPa·s
- mass density (308.15 K, x2 = 0.1): 1231.7 ± 7 kg/m3
- mass density (308.15 K, x2 = 0.165): 1220.3 ± 6.1 kg/m3
- mass density (308.15 K, x2 = 0.291): 1195.8 ± 4.5 kg/m3
- mass density (308.15 K, x2 = 0.401): 1173.6 ± 3.4 kg/m3
- mass density (308.15 K, x2 = 0.592): 1117.5 ± 1.9 kg/m3
- mass density (308.15 K, x2 = 0.637): 1100.6 ± 1.6 kg/m3
- mass density (308.15 K, x2 = 0.79): 1011 ± 1 kg/m3
- mass density (308.15 K, x2 = 0.86): 948.7 ± 0.5 kg/m3
- viscosity (308.15 K, x2 = 0.1): 69.74 ± 4.6 mPa·s
- viscosity (308.15 K, x2 = 0.165): 54.25 ± 4.2 mPa·s
- viscosity (308.15 K, x2 = 0.291): 30.63 ± 4.1 mPa·s
- viscosity (308.15 K, x2 = 0.401): 20.06 ± 4 mPa·s
- viscosity (308.15 K, x2 = 0.592): 8.48 ± 4 mPa·s
- viscosity (308.15 K, x2 = 0.637): 7.52 mPa·s
- viscosity (308.15 K, x2 = 0.79): 3.74 mPa·s
- viscosity (308.15 K, x2 = 0.86): 3.16 mPa·s
- mass density (313.15 K, x2 = 0.1): 1228.2 ± 6.9 kg/m3
- mass density (313.15 K, x2 = 0.165): 1216.2 ± 6 kg/m3
- mass density (313.15 K, x2 = 0.291): 1193.1 ± 4.5 kg/m3
- mass density (313.15 K, x2 = 0.401): 1169.9 ± 3.4 kg/m3
- mass density (313.15 K, x2 = 0.592): 1114.8 ± 1.8 kg/m3
- mass density (313.15 K, x2 = 0.637): 1096.7 ± 1.6 kg/m3
- mass density (313.15 K, x2 = 0.79): 1007 ± 1 kg/m3
- mass density (313.15 K, x2 = 0.86): 944.6 ± 0.5 kg/m3
- viscosity (313.15 K, x2 = 0.1): 56.98 ± 4.3 mPa·s
- viscosity (313.15 K, x2 = 0.165): 44.76 ± 4.2 mPa·s
- viscosity (313.15 K, x2 = 0.291): 26.13 ± 4 mPa·s
- viscosity (313.15 K, x2 = 0.401): 17.38 ± 4 mPa·s
- viscosity (313.15 K, x2 = 0.592): 7.43 mPa·s
- viscosity (313.15 K, x2 = 0.637): 6.66 mPa·s
- viscosity (313.15 K, x2 = 0.79): 3.46 mPa·s
- viscosity (313.15 K, x2 = 0.86): 2.8 mPa·s
- mass density (318.15 K, x2 = 0.1): 1224.7 ± 6.9 kg/m3
- mass density (318.15 K, x2 = 0.165): 1211.2 ± 6 kg/m3
- mass density (318.15 K, x2 = 0.291): 1188.9 ± 4.5 kg/m3
- viscosity (318.15 K, x2 = 0.1): 46.98 ± 4.2 mPa·s
- viscosity (318.15 K, x2 = 0.165): 37.2 ± 4.1 mPa·s
- viscosity (318.15 K, x2 = 0.291): 22.14 ± 4 mPa·s
- mass density (323.15 K, x2 = 0.1): 1221.3 ± 6.8 kg/m3
- mass density (323.15 K, x2 = 0.165): 1207.2 ± 5.9 kg/m3
- mass density (323.15 K, x2 = 0.291): 1184.7 ± 4.4 kg/m3
- viscosity (323.15 K, x2 = 0.1): 39.45 ± 4.2 mPa·s
- viscosity (323.15 K, x2 = 0.165): 31.56 ± 4.1 mPa·s
- viscosity (323.15 K, x2 = 0.291): 19.51 ± 4 mPa·s
- mass density (328.15 K, x2 = 0.1): 1217.8 ± 6.8 kg/m3
- mass density (328.15 K, x2 = 0.165): 1201 ± 5.9 kg/m3
- mass density (328.15 K, x2 = 0.291): 1180.1 ± 4.4 kg/m3
- viscosity (328.15 K, x2 = 0.1): 33.69 ± 4.1 mPa·s
- viscosity (328.15 K, x2 = 0.165): 27.02 ± 4.1 mPa·s
- viscosity (328.15 K, x2 = 0.291): 17.16 ± 4 mPa·s
- mass density (333.15 K, x2 = 0.1): 1214.4 ± 6.8 kg/m3
- mass density (333.15 K, x2 = 0.165): 1198.7 ± 5.8 kg/m3
- mass density (333.15 K, x2 = 0.291): 1175.2 ± 4.4 kg/m3
- viscosity (333.15 K, x2 = 0.1): 28.86 ± 4.1 mPa·s
- viscosity (333.15 K, x2 = 0.165): 23.5 ± 4 mPa·s
- viscosity (333.15 K, x2 = 0.291): 15.43 ± 4 mPa·s
- mass density (338.15 K, x2 = 0.1): 1211 ± 6.7 kg/m3
- mass density (338.15 K, x2 = 0.165): 1195.4 ± 5.8 kg/m3
- mass density (338.15 K, x2 = 0.291): 1169.3 ± 4.3 kg/m3
- viscosity (338.15 K, x2 = 0.1): 24.94 ± 4.1 mPa·s
- viscosity (338.15 K, x2 = 0.165): 20.45 ± 4 mPa·s
- viscosity (338.15 K, x2 = 0.291): 13.79 ± 4 mPa·s
- mass density (343.15 K, x2 = 0.1): 1207.5 ± 6.7 kg/m3
- mass density (343.15 K, x2 = 0.165): 1190.3 ± 5.8 kg/m3
- mass density (343.15 K, x2 = 0.291): 1159.4 ± 4.2 kg/m3
- viscosity (343.15 K, x2 = 0.1): 21.69 ± 4 mPa·s
- viscosity (343.15 K, x2 = 0.165): 18.12 ± 4 mPa·s
